According to patent US20130204033A1, “ANTIPROLIFERATIVE COMPOUNDS, CONJUGATES THEREOF, METHODS THEREFOR, AND USES THEREOF” (Medarex, Inc., priority 2009, published 2013):
Read-outs that look alike come from different tables or passages of the source.

Experiments:
Assay type in all cases: cell-based, human
[1] = test system: RPMI-8226; assay: 3H thymidine proliferation assay, RPMI-8226
Summary of the method: (§1)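 Proliferation is read as incorporated ^3H-thymidine (1.0 μCi/well, final 24 h) after 72 h with 1:3 dilution series of free compound or conjugate; 1.0×10^4 cells/well. The EC50 is where proliferation falls by 50%.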

[2] = test system: SW-480; assay: ATP luminescence proliferation assay, SW-480
Summary of the method: (§2)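 Antiproliferative EC50 values derive from luminescent ATP measurement in human tumor cells exposed for 48, 72 or 96 h to 1:3 serial dilutions of free compounds or their conjugates, with 1.0×10^3 cells seeded per well 3 h beforehand.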

[3] = test system: Raji; assay: ATP luminescence proliferation assay, Raji
Summary of the method: as §2

[4] = test system: HPAC; assay: ATP luminescence proliferation assay, HPAC
Protocol: This example generally describes the procedures used to assay the antiproliferative activity of compounds of this invention or their conjugates. Human tumor cell lines were obtained from the American Type Culture Collection (ATCC), P.O. Box 1549, Manassas, Va. 20108, USA, and cultured according to instruction from the ATCC. Cells were seeded at 1.0×10^3 or 1.0×10^4 cells/well in 96-well plates for 3 h for ATP assays or ^3H thymidine assays, respectively. 1:3 serial dilutions of free (unconjugated) compounds or their conjugates were added to the wells. Plates were allowed to incubate for 24 to 72 h. The ^3H thymidine plates were pulsed with 1.0 μCi of ^3H-thymidine per well for the last 24 hours of the total incubation period, harvested, and read on a Top Count Scintillation Counter (Packard Instruments, Meriden, Conn.). ATP levels in the ATP plates were measured using the […]-GLO® Luminescent Cell Viability kit following the manufacturer's manual and read on a GLOMAX® 20/20 luminometer (both from Promega, Madison, Wis., USA). The EC50 values—the concentration at which an agent inhibits or reduces cell proliferation by 50% —were determined using PRISM™ software, version 4.0 (GraphPad Software, La Jolla, Calif., USA).
Using the ^3H thymidine or the ATP luminescence assay, or both, the activities of compounds of this invention were assayed against the following cancer cell lines: HCT-15 (colorectal cancer, multi-drug resistant (MDR)); Hep3B (liver cancer); LNCaP (prostate cancer, androgen receptor positive (AR^+)); MDA-MB-231 (breast cancer, estrogen receptor, progesterone receptor, and Her2 negative (triple negative)); A2058 (melanoma); U-87 MG (glioblastoma); NCI-H460 (NSCLC); A549 (NSCLC); HPAC (pancreatic cancer, primary); PC3 (prostate cancer, AR); BT474 (breast cancer, Her2 highly positive (Her2hi)); SKOV3 (ovarian cancer, Her2hi); 786-O (renal cancer); UO-31 (renal cancer, MDR); NCI-H740 (SCLC); DMS53 (SCLC); SK-BR3 (breast cancer, Her2hi); ZR-75 (breast cancer, estrogen receptor positive); OVCAR3 (ovarian cancer); HL-60 (APL); OVCAR8/Adr (ovarian cancer, MDR); CEM-Cl (ALL); Nomo-1 (AML); RPMI-8226 (MM)); Raji (lymphoma); SW-480 (colorectal cancer, metastatic); SW-620 (colorectal cancer); and H226 (lung cancer). (Not all compounds were assayed against all cell lines.)
Table 3 provides the data for the ATP luminescence proliferation assays, with an incubation period of 48, 72, or 96 h, as noted.

[5] = test system: MDA-MB-231; assay: 3H thymidine proliferation assay, MDA-MB-231
Summary of the method: as §1

[6] = test system: CEM-C1; assay: 3H thymidine proliferation assay, CEM-C1
Summary of the method: as §1

[7] = test system: PC3; assay: ATP luminescence proliferation assay, PC3
Summary of the method: as §2

[8] = test system: Hep3B; assay: ATP luminescence proliferation assay, Hep3B
Summary of the method: as §2

[9] = test system: HL-60; assay: ATP luminescence proliferation assay, HL-60
Summary of the method: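 Cells seeded at 1.0×10^3 cells/well for 3 h, then exposed to 1:3 serial dilutions of free compounds or conjugates for 48, 72 or 96 h, as noted. ATP measured by luminescent cell viability kit; EC50 taken as concentration reducing proliferation by 50%.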

[10] = test system: OVCAR8; assay: 3H thymidine proliferation assay, OVCAR8
Summary of the method: as §1

[11] = test system: Nomo-1; assay: 3H thymidine proliferation assay, Nomo-1
Summary of the method: as §1

[12] = test system: NCI-H460; assay: 3H thymidine proliferation assay, NCI-H460
Summary of the method: as §1

[13] = test system: CEM-Cl; assay: ATP luminescence proliferation assay, CEM-C1
Summary of the method: as §2

[14] = test system: SK-BR3; assay: ATP luminescence proliferation assay, SK-BR3
Summary of the method: as §2

[15] = test system: BT474; assay: 3H thymidine proliferation assay, BT474
Summary of the method: as §1

[16] = test system: SKOV3; assay: ATP luminescence proliferation assay, SKOV3
Summary of the method: as §2

[17] = test system: PC3; assay: 3H thymidine proliferation assay, PC3
Summary of the method: as §1

[18] = test system: A2058; assay: 3H thymidine proliferation assay, A2058; conditions: 3H thymidine method, 72 h incubation
Summary of the method: as §1

[19] = Homo sapiens, RPMI-8226, read-out: EC50, RPMI-8226, 3H thymidine method, 72 h incubation
[20] = Homo sapiens, SW480, 96 h, read-out: EC50 SW480 (96 h), ATP luminescence, SW480, 96 h incubation
[21] = Homo sapiens, 72 h, read-out: EC50 Raji (72 h), ATP luminescence, Raji, 72 h incubation
[22] = Homo sapiens, 72 h, read-out: EC50 HPAC (72 h), ATP luminescence, HPAC, 72 h incubation
[23] = Homo sapiens, MDA-MB-231, read-out: EC50, MDA-MB-231, 3H thymidine method, 72 h incubation
[24] = Homo sapiens, CEM/C1, read-out: EC50, CEM-C1, 3H thymidine method, 72 h incubation
[25] = Homo sapiens, PC-3, 48 h, read-out: EC50 PC3 (48 h), ATP luminescence, PC3, 48 h incubation
[26] = Homo sapiens, 48 h, read-out: EC50 Hep3B (48 h), ATP luminescence, Hep3B, 48 h incubation
[27] = Homo sapiens, HL-60, 72 h, read-out: EC50 HL-60 (72 h), ATP luminescence, HL-60, 72 h incubation
[28] = Homo sapiens, OVCAR-8, read-out: EC50, OVCAR8, 3H thymidine method, 72 h incubation
[29] = Homo sapiens, NOMO-1, read-out: EC50, Nomo-1, 3H thymidine method, 72 h incubation
[30] = Homo sapiens, NCI-H460, read-out: EC50, NCI-H460, 3H thymidine method, 72 h incubation
[31] = Homo sapiens, CEM/C1, 72 h, read-out: EC50 CEM-C1 (72 h), ATP luminescence, CEM-C1, 72 h incubation
[32] = Homo sapiens, SK-BR-3, 48 h, read-out: EC50 SK-BR3 (48 h), ATP luminescence, SK-BR3, 48 h incubation
[33] = Homo sapiens, BT-474, read-out: EC50, BT474, 3H thymidine method, 72 h incubation
[34] = Homo sapiens, SK-OV-3, 72 h, read-out: EC50 SKOV3 (72 h), ATP luminescence, SKOV3, 72 h incubation
[35] = Homo sapiens, PC-3, read-out: EC50, PC3, 3H thymidine method, 72 h incubation

Row | SMILES | EC50 [1, 19] | EC50 [2, 20] | EC50 [3, 21] | EC50 [4, 22] | EC50 [5, 23] | EC50 [6, 24] | EC50 [7, 25] | EC50 [8, 26] | EC50 [9, 27] | EC50 [10, 28] | EC50 [11, 29] | EC50 [12, 30] | EC50 [13, 31] | EC50 [14, 32] | EC50 [15, 33] | EC50 [16, 34] | EC50 [17, 35] | EC50 ([18]; Homo sapiens, A2058) | other results
1 | CC[C@H](C)[C@H](NC(=O)[C@H]1CCCCN1C)C(=O)N(COC(=O)CC(C)C)[C@H](C[C@@H](OC(C)=O)c1nc(C(=O)N[C@@H](Cc2ccccc2)C(=O)OC)cs1)C(C)C [Compound 29] |  |  |  |  |  |  |  |  |  |  |  |  |  |  |  |  |  |  | EC50 ([1]; 3H thymidine method, 72 h incubation, read-out: EC50, RPMI-8226): 0.034 nM; EC50 ([2]; ATP luminescence, SW480, 96 h incubation, read-out: EC50 SW480 (96 h)): 2.7 nM; EC50 ([3]; ATP luminescence, 72 h incubation, read-out: EC50 Raji (72 h)): 2.1 nM; EC50 ([4]; ATP luminescence, 72 h incubation, read-out: EC50 HPAC (72 h)): 4.9 nM; EC50 ([5]; 3H thymidine method, 72 h incubation, read-out: EC50, MDA-MB-231): 0.13 nM; EC50 ([6]; 3H thymidine method, 72 h incubation, read-out: EC50, CEM-C1): 0.019 nM; EC50 ([7]; ATP luminescence, PC3, 48 h incubation, read-out: EC50 PC3 (48 h)): 3.4 nM; EC50 ([8]; ATP luminescence, 48 h incubation, read-out: EC50 Hep3B (48 h)): 1.6 nM; EC50 ([9]; ATP luminescence, HL-60, 48 h incubation, read-out: EC50 HL-60 (48 h)): 0.59 nM; EC50 ([10]; 3H thymidine method, 72 h incubation, read-out: EC50, OVCAR8): 0.7 nM; EC50 ([11]; 3H thymidine method, 72 h incubation, read-out: EC50, Nomo-1): 0.0075 nM; EC50 ([12]; 3H thymidine method, 72 h incubation, read-out: EC50, NCI-H460): 0.21 nM; EC50 ([13]; ATP luminescence, CEM-C1, 72 h incubation, read-out: EC50 CEM-C1 (72 h)): 0.85 nM; EC50 ([14]; ATP luminescence, SK-BR3, 48 h incubation, read-out: EC50 SK-BR3 (48 h)): 3.6 nM; EC50 ([15]; 3H thymidine method, 72 h incubation, read-out: EC50, BT474): 0.57 nM; EC50 ([16]; ATP luminescence, SKOV3, 72 h incubation, read-out: EC50 SKOV3 (72 h)): 1.3 nM; EC50 ([17]; 3H thymidine method, 72 h incubation, read-out: EC50, PC3): 0.21 nM; EC50 [18]: 0.4 nM
2 | CC[C@H](C)[C@H](NC(=O)[C@H]1CCCCN1C)C(=O)N(C)[C@H](C[C@@H](OC)c1nc(C(=O)N[C@@H](Cc2ccccc2)C(=O)N[C@@H](C)C(=O)OC)cs1)C(C)C [Compound 24] | 17 nM | 42 nM | 7.9 nM | 1.1 nM | 33 nM | 13 nM | 13 nM | 10 nM | 6.4 nM | > 100 nM | 1.1 nM | > 100 nM | 8.7 nM | 8.9 nM | > 100 nM | 13 nM | 63 nM | 0.12 nM | 
3 | CC[C@H](C)[C@H](NC(=O)[C@H]1CCCCN1C)C(=O)N(COC(=O)CC(C)C)[C@H](C[C@@H](OC(C)=O)c1nc(C(=O)N[C@@H](Cc2ccc(N)cc2)CC(C)C(=O)O)cs1)C(C)C (stereo partly drawn) [Compound 54] | 0.36 nM | 1.6 nM | 1.2 nM | 0.96 nM | 1.6 nM | 0.38 nM | 3.1 nM | 1.5 nM |  | 2.1 nM | 0.77 nM | 0.31 nM | 1.2 nM | 6.2 nM | 8.8 nM | 1.3 nM | 0.82 nM | 0.64 nM | EC50 ([9]; Homo sapiens, HL-60, 48 h, read-out: EC50 HL-60 (48 h), ATP luminescence, HL-60, 48 h incubation): 2.5 nM
4 | CC[C@H](C)[C@H](NC(=O)[C@H]1CCCCN1C)C(=O)N(C)[C@H](C[C@@H](OC)c1nc(C(=O)N[C@H](CCC(=O)OC)Cc2ccccc2)cs1)C(C)C [Compound 26] | 7.7 nM | 67 nM | 46 nM | 279 nM | 15 nM | 22 nM | > 3000 nM | 100 nM | 27 nM | 201 nM | 0.36 nM | 18 nM |  | 253 nM | 11 nM | 38 nM | 16 nM | 25 nM | EC50 ([13]; Homo sapiens, CEM/C1, 48 h, read-out: EC50 CEM-C1 (48 h), ATP luminescence, CEM-C1, 48 h incubation): 61 nM
